Results as given in patent US20220313803A1, “NOVEL NEOANTIGENS AND CANCER IMMUNOTHERAPY USING SAME” (BRIGHTPATH BIOTHERAPEUTICS CO., LTD., priority 2019, published 2022).
Entries after “also recorded” stand apart in the source; their conditions may differ.

T1: PIK3CA H1047R peptide on HLA-DRB1*04:05 (human)
T1 peptide: LEYFMKQMNDARHGG

T2: PIK3CA H1047R peptide on HLA-DRB1*04:05 (human)
T2 peptide: EALEYFMKQMNDARH

T3: PIK3CA H1047R peptide on HLA-DRB1*04:05 (human)
T3 peptide: FMKQMNDARHGGWT

T4: PIK3CA H1047R peptide on HLA-DRB1*04:05 (human)
T4 peptide: EYFMKQMNDARHGGW

T5: PIK3CA H1047R peptide on HLA-DRB1*04:05 (human)
T5 peptide: YFMKQMNDARHGGW

T6: PIK3CA H1047R peptide on HLA-DRB1*04:05 (human)
T6 peptide: ALEYFMKQMNDARHG

T7: PIK3CA wild-type peptide on HLA-DRB1*04:05 (human)
T7 peptide: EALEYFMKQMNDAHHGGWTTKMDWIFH

T8: PIK3CA H1047R peptide on HLA-DRB1*04:05 (human)
T8 peptide: MKQMNDARHGGWTT


Assays:
[1] = system: PIK3CA-H1047R-specific TCR-T cells; assay: Antigen specificity of TCR-T cells (IFNy-producing cells by flow cytometer); assay type: cell-based, human; details: TCR-T cells co-cultured with APC (donor No. 9-derived EB virus immortalized B cells) in the presence of the peptide, 20 to 24 hours
Experimental: Via a retrovirus vector (donated by Toyama University) to which the TCRa chain gene (SEQ ID NO: 29) and TCRI3 chain gene (SEQ ID NO: 30) identified in Example 5 derived from the donor No. 9-derived PIK3CA-H1047R-specific T cells were inserted, a cell line (TCR-T cell) expressing the TCR gene was prepared by introducing the PIK3CA-H1047R-specific TCR gene into T cells derived from healthy subjects. The prepared TCR-T cells (TCR gene-expressing cell line) (5.0×10^4 cells as T cells) and APC (donor No. 9-derived EB virus immortalized B cells; 5×10^3 cells) were cultured in a 96 well U bottom plate for 20 to 24 hours in the presence of the antigen peptide (PIK3CA-H1047R (SEQ ID NO: 8)) or the wild-type peptide thereof ([…]), then the cultured cells were collected, and antigen specificity was confirmed by detecting IFNy-producing cells with a flow cytometer.

[2] = system: antigen-specific T cells (CD4 or CD8-positive) from healthy human PBMCs; assay: Immunogenicity evaluation of peptides with healthy human PBMCs (ICS for IFNy or IFNy ELISA); assay type: cell-based; details: for activation of CD8-positive cells: donor No. 9; for immunogenicity as HLA Class I / Class II epitope / activation of CD4-positive T cells: healthy donor PBMCs; for activation of CD4-positive T cells: CD4-positive IFNy-producing cells; for samples in which the peptide had immunogenicity (positive/tested): single peptide re-analysis, 24 donors (Mix-1, Mix-2 peptides) or 25 donors (Mix-3 peptides)
Text: Peripheral blood mononuclear cells (PBMCs) that were those of a lot containing HLA-A*24:02 or A*02:01 of purified normal human PBMCs (Precision Bioservice, 93000-10M or -50M), were selected and used. Alternatively, PBMCs were separated and collected by density gradient centrifugation from peripheral blood provided by 10 healthy volunteers (including those of HLA-A*24:02 or A*02:01) recruited at the Kanagawa Cancer Center Research Institute, and were used in the experiment.
Healthy human PBMCs of 2×10^6 cells were cultured (a CO2 incubator; 5% CO2 and at 37° C.) for 7 days in the presence of the peptides to be evaluated (2, 2.5 or 5 μg/mL, and in the case of Mix (described later), 2 lag/mL for each peptide), and then the cells were collected. AIM-V medium (Thermo Fisher Scientific K.K., 12055-091) supplemented with a 5% human serum (NIP Biomedicals, 2931949) was used as medium.
On the other hand, the PBMCs of the same lot were cultured in the presence of a GM-CSF and IL-4 for 7 days to differentiate into dendritic cells (DC), and a part thereof was cryopreserved.
Cell stimulation for evaluation of immunogenicity was carried out according to the method outlined in FIG. 2. Namely, the PBMCs stimulated with the peptide for 7 days were collected and co-cultured in the presence of DC (1×10^5 cells) treated with a mitomycin C (60 μg/mL, Kyowa Kirin Co., Ltd.), each peptide (2, 2.5 or 5 μg/mL), and 0.1 KE/mL of OK-432 (for injection of Picibanil, Chugai Pharmaceutical Co., Ltd.). An IL-2 (PeproTech, Inc., AF-200-02) was added at 10 IU/mL on the second day of the co-culture (Day 9 with the stimulation start date as Day 0), and the cells were further cultured for 5 days.
After culturing (Day 14), the cells were collected, the cryopreserved DC was thawed, and the cells were co-cultured again in the presence of the same concentration of each peptide for 7 days. The cells cultured for a total of 21 days were collected, and activation of antigen-specific T cells was confirmed by intracellular cytokine staining (ICS) or IFNy ELISA. For evaluation, the PBMCs for 24 donors (of Mix-1 and Mix-2) or the PBMCs for 25 donors (of Mix-3) (the donor numbers 1 to 10 are derived from healthy volunteers, and the donor numbers with 3 digits were purchased from Precision Bioservice, Inc.), were used. In this study, 10 kinds of peptides designed from the sequences containing the driver mutations in Example 1 and synthesized (SEQ ID NO: 1 to SEQ ID NO: 10) were mixed to the following mixtures containing 3 to 4 kinds of peptides (see FIG. 4): Mix-1: a mixture of KRA S-G 1 2C (SEQ ID NO: 3), NRAS-Q61K (SEQ ID NO: 6) and PIK3CA-H1047R (SEQ ID NO: 8); Mix-2: a mixture of KRAS-G12V (SEQ ID NO: 2), NRAS-Q61R (SEQ ID NO: 7), and PIK3CA-E545K (SEQ ID NO: 9); and Mix-3: a mixture of KRAS-G12D (SEQ ID NO: 1), KRAS-G12R (SEQ ID NO: 4), KRAS-G13D (SEQ ID NO: 5), and C-Kit-D816V (SEQ ID NO: 10). First, activation of antigen-specific T cells by stimulation with each Mix was observed, and when the activation was observed, the T cells were stimulated in the presence of each peptide alone to identify a peptide having immunogenicity. The presence or absence of activation was determined by the ICS (IFNy) or ELISA (IFNy in the culture supernatant).
Intracellular cytokine staining (ICS) was carried out according to the following procedure. The cells (5.0×10^4 cells) cultured for 21 days in the presence of the peptide and collected in the present Example, and antigen-presenting cells (APC) (autologous DC; 5×10^3 cells) were placed in a 96-well U bottom plate and cultured for 2 hours in the presence of the peptide. 10 μg/mL of Brefeldin A (Merck KGaA, B7651) was added to the cells to culture for 20 to 24 hours. […]

[3] = biological target: T1, PIK3CA H1047R peptide on HLA-DRB1*04:05; assay: cytokine release
[4] = biological target: T2, PIK3CA H1047R peptide on HLA-DRB1*04:05; assay: cytokine release
[5] = biological target: T3, PIK3CA H1047R peptide on HLA-DRB1*04:05; assay: cytokine release
[6] = biological target: T4, PIK3CA H1047R peptide on HLA-DRB1*04:05; assay: cytokine release
[7] = biological target: T5, PIK3CA H1047R peptide on HLA-DRB1*04:05; assay: cytokine release
[8] = biological target: T6, PIK3CA H1047R peptide on HLA-DRB1*04:05; assay: cytokine release
[9] = biological target: T7, PIK3CA wild-type peptide on …; assay: cytokine release
[10] = biological target: T8, PIK3CA H1047R peptide on HLA-DRB1*04:05; assay: cytokine release

Molecule | frequency of IFNy-producing cells [1] | activation of CD8-positive cells [2] | immunogenicity as HLA Class I / Class II epitope [2] | activation of CD4-positive T cells [2] | samples in which the peptide had immunogenicity (positive/tested) [2] | also measured
EALEYFMKQMNDAHHGGWTTKMDWIFH [WT1, wild-type peptide of PIK3CA-H1047R, reference compound] | less than 1% |  |  |  |  | 
C-Kit-D816V: 27-mer C-Kit D816V neoantigen peptide GRITKICDFGLAR[V]IKNDSNYVVKGNA (GRITKICDFGLARVIKNDSNYVVKGNA; listed as Homo sapiens) |  | activation of CD8-positive cells was observed in 1 donor | immunogenicity as both the HLA Class I epitope and the Class II epitope | those derived from 4 donors were CD4 positive; also recorded: activation of CD4-positive T cells was observed; also recorded: particularly strong ability to activate CD4-positive helper T cells | 5/25 | 
PIK3CA-H1047R: 27-mer PIK3CA H1047R neoantigen peptide EALEYFMKQMNDA[R]HGGWTTKMDWIFH (EALEYFMKQMNDARHGGWTTKMDWIFH; listed as Homo sapiens) | 30.4%±0.9% | activation of CD8-positive cells was also observed | immunogenicity as both the HLA Class I epitope and the Class II epitope | All antigen-specific T cells activated in the 4 donors were CD4 positive; also recorded: activation of CD4-positive T cells was observed; also recorded: particularly strong ability to activate CD4-positive helper T cells | 4/24 | 
KRAS-G12D: 27-mer KRAS G12D neoantigen peptide MTEYKLVVVGA[D]GVGKSALTIQLIQNH |  |  |  | activation of CD4-positive T cells was observed; also recorded: particularly strong ability to activate CD4-positive helper T cells | 1/25 | frequency of samples in which the peptide had immunogenicity ([2]; samples derived from healthy people, single peptide analysis): 4.0%
NRAS-Q61R: 27-mer NRAS Q61R neoantigen peptide GETCLLDILDTAG[R]EEYSAMRDQYMRT (GETCLLDILDTAGREEYSAMRDQYMRT; listed as Homo sapiens) |  |  |  | they were all CD4-positive T cells; also recorded: activation of CD4-positive T cells was observed; also recorded: particularly strong ability to activate CD4-positive helper T cells | 3/24 | 
TCR of the donor No. 9-derived PIK3CA-H1047R-specific T cells (SEQ ID NOs 29 and 30) (TCR, V domains shown) Valpha: QQVKQSPQSLIVQKGGISIINCAYENTAFEYFPWYQQFPGKGPALLIAIRPDVSEKKEGRFTISFNKSAKQFSLHIMDSQPGDSATYFCAASGSYNNNDMRFGAGTRLTVKP Vbeta: NAGVTQTPKFQVLKTGQSMTLQCAQDMNHEYMSWYRQDPGMGLRLIHYSVGAGITDQGEVPNGYNVSRSTTEDFPLRLLSAAPSQTSVYFCASSYASPGTGYSGELFFGEGSRLTVL |  |  |  |  |  | binding result [3]: recognises; binding result [4]: recognises; binding result [5]: recognises; binding result [6]: recognises; binding result [7]: recognises; binding result [8]: recognises; binding result [9]: no recognition; binding result [10]: recognises
